Results on one molecule are retold here after patent publication US20140296968A1, “IMPLANTABLE VASCULAR STENT” (Translumina GmbH, priority 2011, published 2014).

The data set can be described thus: release of rapamycin in vivo.

The structures appear in SMILES notation.

As to `CO[C@H]1C[C@@H]2CC[C@@H](C)[C@@](O)(O2)C(=O)C(=O)N2CCCC[C@H]2C(=O)O[C@H]([C@H](C)C[C@@H]2CC[C@@H](O)[C@H](OC)C2)CC(=O)[C@H](C)/C=C(\C)[C@@H](O)[C@@H](OC)C(=O)[C@H](C)C[C@H](C)/C=C/C=C/C=C/1C` [rapamycin], the “duration of the release of rapamycin” value lay in the range of 4 to 6 weeks.
